Assays:
Bj-5ta = experiment: MTT assay, BJ-5ta non-cancerous fibroblasts; format: cell-based, human; conditions: non-cancerous dermal fibroblasts, 48 h incubation
Procedure, shortened: (§1)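 IC50 by nonlinear regression from MTT absorbance (540 nm, SDS-dissolved formazan), at least three repeats. Non-cancerous human lines, MCF-10A and BJ-5ta fibroblasts, were treated 48 h with 5, 10, 20 and 50 µmol/L compound, added 24 h after seeding.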

A549 = experiment: MTT assay, A549; format: cell-based, human; conditions: lung adenocarcinoma, 48 h incubation
Procedure, shortened: (§2)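 5–10 × 10^3 cells/well, 24 h attach → compound 5, 10, 20, 50 µmol/L in medium, 48 h → MTT → 10% SDS, 24 h → A540. IC50 by nonlinear regression, n ≥ 3.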

Hep G2 = experiment: MTT assay, Hep G2; format: cell-based, human; conditions: hepatocellular carcinoma, 48 h incubation
Procedure, shortened: as §2

HeLa = experiment: MTT assay, HeLa; format: cell-based, human; conditions: cervical adenocarcinoma, 48 h incubation
Procedure, shortened: (§3)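 Antiproliferative IC50 came from MTT absorbance (540 nm, SDS-solubilized) after 48 h treatment at four concentrations, 5-50 µmol/L, applied to cells plated 24 h earlier. Media: RPMI 1640 for HeLa and HCT116, DMEM for A2058 and PATU 8902, each with 10% FBS; nonlinear regression, at least three experiments.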

HCT116 = experiment: MTT assay, HCT116; format: cell-based, human; conditions: colorectal adenocarcinoma, 48 h incubation
Procedure, shortened: as §3

PATU = experiment: MTT assay, PATU 8902; format: cell-based, human; conditions: pancreas adenocarcinoma, 48 h incubation
Procedure, shortened: as §3

A2058 = experiment: MTT assay, A2058; format: cell-based; conditions: human melanoma, 48 h incubation
Procedure, shortened: as §3

[1] = target: T1, bovine serum albumin (BSA) (Bos taurus, UniProt P02769); experiment: BSA fluorescence quenching (Stern–Volmer); format: binding; conditions: for Stern–Volmer quenching constant Ksv: BSA 1 μM, excitation 280 nm, PBS pH 7.4, 24 °C; for bimolecular quenching rate constant kq: kq = Ksv/τ0, τ0 = 10^−8 s, BSA, pH 7.4, 24 °C
T1 construct: purchased Sigma-Aldrich
Text: BSA contains 582 amino acid residues, including tyrosine (Tyr), phenylalanine (Phe), and tryptophan (Trp). The tryptophan residues located at positions 134 and 212 being predominantly responsible for its intrinsic fluorescence due to their higher quantum yield than the other amino acids. When excitation occurs at 280 nm, both Trp and Tyr contribute to the fluorescence of the protein [44]. In this study, we investigated the interaction of newly synthesized derivatives (7e·2HCl, 12d·2HCl, 13c·HCl, and 13d), which have promising anticancer properties, with BSA. BSA (1 μM) was titrated with increasing concentration of acridine derivatives, and fluorescence spectra were recorded in the range of 300–500 nm (Figure 10). The fluorescence quenching for the quencher (Q) and protein interaction was analyzed using the Stern–Volmer equation [45, 46]: F0/F=1+Ksv [Q]=1+Kq τ0[Q] where F0 and F denote the fluorescence intensities in the absence and presence of the quencher Q, respectively. Ksv is the Stern–Volmer constant, kq is the bimolecular quenching rate constant (kq = Ksv/τ0), and τ0 is the lifetime of BSA in the absence of quencher, which is equal to 10^−8 s for the tryptophan fluorescence of proteins.
The fluorescence spectra were recorded using a Varian Cary Eclipse spectrofluorometer (Palo Alto, CA, USA) in a 10 mM phosphate-buffered saline solution (pH = 7.4) at 24 °C. The spectra were measured with an excitation wavelength of 280 nm using a slit width of 10 nm for both the excitation and emission beams over a range of 300–450 nm. Spectrofluorometric BSA titrations were performed with increasing concentrations of acridine derivatives.

MCF-10A = experiment: MTT assay, MCF-10A non-cancerous cells; format: cell-based, human; conditions: non-cancerous epithelial breast cells, 48 h incubation
Procedure, shortened: as §1

A2780 = experiment: MTT assay, A2780; format: cell-based, human; conditions: ovarian adenocarcinoma, 48 h incubation
Procedure, shortened: as §2

T1 sequence (P02769 25-607): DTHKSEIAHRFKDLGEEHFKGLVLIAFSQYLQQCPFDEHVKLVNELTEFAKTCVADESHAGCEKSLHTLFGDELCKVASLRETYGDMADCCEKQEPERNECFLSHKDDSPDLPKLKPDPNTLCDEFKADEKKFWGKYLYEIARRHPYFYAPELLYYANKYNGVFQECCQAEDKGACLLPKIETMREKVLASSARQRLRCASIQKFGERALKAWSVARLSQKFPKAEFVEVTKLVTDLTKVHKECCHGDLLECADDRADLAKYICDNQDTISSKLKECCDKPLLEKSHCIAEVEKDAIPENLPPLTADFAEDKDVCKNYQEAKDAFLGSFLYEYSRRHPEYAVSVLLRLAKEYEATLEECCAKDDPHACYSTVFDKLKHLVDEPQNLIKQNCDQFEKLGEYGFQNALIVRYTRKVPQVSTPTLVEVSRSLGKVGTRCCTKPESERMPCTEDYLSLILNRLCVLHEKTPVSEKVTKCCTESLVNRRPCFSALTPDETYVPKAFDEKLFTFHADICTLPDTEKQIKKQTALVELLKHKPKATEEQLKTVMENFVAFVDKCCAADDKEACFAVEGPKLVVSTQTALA

Structure (SMILES)	IC50 (A549) [µM]	IC50 (HeLa) [µM]	IC50 (HCT116) [µM]	Stern–Volmer quenching constant Ksv [1]	bimolecular quenching rate constant kq [1]	IC50 (A549; Homo sapiens, A549, 48 h) [µM]	IC50 (A2780; Homo sapiens, A2780, 48 h) [µM]	IC50 (HeLa; Homo sapiens, HeLa, 48 h) [µM]	IC50 (HCT116; Homo sapiens, HCT-116, 48 h) [µM]	melting point	IC50 (Bj-5ta) [µM]	IC50 (Hep G2) [µM]	IC50 (PATU) [µM]	IC50 (A2058) [µM]	IC50 (MCF-10A; Homo sapiens, MCF-10A, 48 h) [µM]	IC50 (Bj-5ta; Homo sapiens, Fibroblast, 48 h) [µM]	IC50 (Hep G2; Homo sapiens, HepG2, 48 h) [µM]	IC50 (PATU; Homo sapiens, PaTu 8902, 48 h) [µM]	IC50 (A2058; Homo sapiens, A2058, 48 h) [µM]	also measured
COc1cc(/C=C2\SC(=O)N(Cc3c4ccccc4nc4ccccc34)C2=O)ccc1OCC(=O)Nc1ccc([N+](=O)[O-])cc1.Cl.Cl [12d·2HCl, 2-(4-{[(5Z)-3-[(Acridin-9-yl)methyl]-2,4-dioxo-1,3-thiazolidin-5-ylidene]methyl}-2-methoxyphenoxy)-N-(4-nitrophenyl)acetamide dihydrochloride]	> 50	19.3 ± 5.5	17.6 ± 4.5	10.47 × 10^4 [M^−1]	10.47 × 10^12 [M^−1·s^−1]						> 50	> 50	30.8 ± 6.2	> 50						
COc1cc(/C=C2\SC(=O)N(Cc3cccc4cc5ccccc5nc34)C2=O)ccc1OCC(=O)Nc1cc(OC)c(OC)c(OC)c1.Cl [13c·HCl, 2-(4-{[(5Z)-3-[(Acridin-4-yl)methyl]-2,4-dioxo-1,3-thiazolidin-5-ylidene]methyl}-2-methoxyphenoxy)-N-(3,4,5-trimethoxyphenyl)acetamide hydrochloride]	14.6 ± 3.3	14.3 ± 6.4	> 50	10.58 × 10^4 [M^−1]	10.58 × 10^12 [M^−1·s^−1]						> 50	23.4 ± 3.4	> 50	> 50						
Cl.Cl.O=C(COc1ccc(/C=C2\SC(=O)N(Cc3c4ccccc4nc4ccccc34)C2=O)cc1)Nc1ccccc1C(F)(F)F [Compound 7e·2HCl, 2-(4-{[(5Z)-3-[(Acridin-9-yl)methyl]-2,4-dioxo-1,3-thiazolidin-5-ylidene]methyl}phenoxy)-N-[2-(trifluoromethyl)phenyl]acetamide dihydrochloride]	34.3 ± 5.7	20.5 ± 3.8	8.9 ± 3.1	10.74 × 10^4 [M^−1]	10.74 × 10^12 [M^−1·s^−1]						> 50	> 50	11 ± 2.2	> 50						IC50 (MCF-10A): > 50 µM; IC50 (A2780): > 50 µM

Now from value to molecule, other results behind:

IC50 (A549) [µM]	IC50 (HeLa) [µM]	IC50 (HCT116) [µM]	Stern–Volmer quenching constant Ksv [1]	bimolecular quenching rate constant kq [1]	IC50 (A549; Homo sapiens, A549, 48 h) [µM]	IC50 (A2780; Homo sapiens, A2780, 48 h) [µM]	IC50 (HeLa; Homo sapiens, HeLa, 48 h) [µM]	IC50 (HCT116; Homo sapiens, HCT-116, 48 h) [µM]	melting point	Structure (SMILES)	IC50 (Bj-5ta) [µM]	IC50 (Hep G2) [µM]	IC50 (PATU) [µM]	IC50 (A2058) [µM]	IC50 (MCF-10A; Homo sapiens, MCF-10A, 48 h) [µM]	IC50 (Bj-5ta; Homo sapiens, Fibroblast, 48 h) [µM]	IC50 (Hep G2; Homo sapiens, HepG2, 48 h) [µM]	IC50 (PATU; Homo sapiens, PaTu 8902, 48 h) [µM]	IC50 (A2058; Homo sapiens, A2058, 48 h) [µM]	also measured
					> 50	> 50	41.9 ± 5.7	> 50	213 to 214 °C	COc1cc(/C=C2\SC(=O)N(Cc3cccc4cc5ccccc5nc34)C2=O)ccc1OCC(=O)Nc1ccccc1 [Compound 13a, 2-(4-{[(5Z)-3-[(Acridin-4-yl)methyl]-2,4-dioxo-1,3-thiazolidin-5-ylidene]methyl}-2-methoxyphenoxy)-N-phenylacetamide]					> 50	> 50	> 50	> 50	49.1 ± 0.85	
					38.9 ± 2.1	> 50	25.7 ± 3.45	44.7 ± 4.1	222 to 224 °C	COc1cc(NC(=O)COc2ccc(/C=C3\SC(=O)N(Cc4cccc5cc6ccccc6nc45)C3=O)cc2OC)cc(OC)c1 [Compound 13b, 2-(4-{[(5Z)-3-[(Acridin-4-yl)methyl]-2,4-dioxo-1,3-thiazolidin-5-ylidene]methyl}-2-methoxyphenoxy)-N-(3,5-dimethoxyphenyl)acetamide]					43.6 ± 3.3	41.7 ± 0.8	> 50	> 50	34.4 ± 2.45	
> 50	44.2 ± 4.1	23.1 ± 5.7				> 50			228 to 230 °C (dec.)	COc1cc(/C=C2\SC(=O)N(Cc3cccc4cc5ccccc5nc34)C2=O)ccc1OCC(=O)Nc1cc(OC)c(OC)c(OC)c1 [Compound 13c, 2-(4-{[(5Z)-3-[(Acridin-4-yl)methyl]-2,4-dioxo-1,3-thiazolidin-5-ylidene]methyl}-2-methoxyphenoxy)-N-(3,4,5-trimethoxyphenyl)acetamide]		> 50			> 50	> 50		> 50	42.5 ± 0.25	
					> 50	> 50	26.7 ± 3.8	9.9 ± 1.7	217 to 218 °C	COc1cc(/C=C2\SC(=O)N(Cc3cccc4cc5ccccc5nc34)C2=O)ccc1OCC(=O)Nc1ccccc1C(F)(F)F [Compound 13e, 2-(4-{[(5Z)-3-[(Acridin-4-yl)methyl]-2,4-dioxo-1,3-thiazolidin-5-ylidene]methyl}-2-methoxyphenoxy)-N-[2-(trifluoromethyl)phenyl]acetamide]					14.9 ± 0.16	> 50	> 50	> 50	35.2 ± 2.87	
		36.3 ± 4.6			> 50	> 50	21.8 ± 6.4		203 to 205 °C	COc1cc(/C=C2\SC(=O)N(Cc3cccc4cc5ccccc5nc34)C2=O)ccc1OCC(=O)Nc1cccc(C(F)(F)F)c1 [Compound 13f, 2-(4-{[(5Z)-3-[(Acridin-4-yl)methyl]-2,4-dioxo-1,3-thiazolidin-5-ylidene]methyl}-2-methoxyphenoxy)-N-[3-(trifluoromethyl)phenyl]acetamide]					28.9 ± 5.6	> 50	> 50	> 50	31.9 ± 4.1	
		24.9 ± 3.5			> 50	> 50	17.7 ± 2.9		249 to 250 °C	COc1cc(/C=C2\SC(=O)N(Cc3cccc4cc5ccccc5nc34)C2=O)ccc1OCC(=O)Nc1cc(C(F)(F)F)cc(C(F)(F)F)c1 [Compound 13g, 2-(4-{[(5Z)-3-[(Acridin-4-yl)methyl]-2,4-dioxo-1,3-thiazolidin-5-ylidene]methyl}-2-methoxyphenoxy)-N-[3,5-bis(trifluoromethyl)phenyl]acetamide]					> 50	> 50	> 50	> 50	> 50	

Reference: PMC11280325, “Design, Synthesis, and Characterization of Novel Thiazolidine-2,4-Dione-Acridine Hybrids as Antitumor Agents” (Molecules, 2024)
